Measurements from US4430343A, “Benzimidazole derivatives, process for the preparation thereof and pharmaceutical composition containing the same” (Kanebo, Ltd., priority 1981, dated 1984).
Structures can show the parent of a compound that is named as a salt.

What was measured:
in vivo = conditions: mouse, ddY male mice, oral, observed one week, Weil's method, read-out: Acute toxicity LD50
Procedure: The same compounds as used in the above protecting activity against histamine were used.
The LD50 was calculated based on the number of dead mice within one week according to Weil's method.

[1] = test system: histamine-induced lethality; assay: Protecting activity against histamine-induced lethality (method similar to Labell & Tislow); type: in vivo, Hartley strain male guinea pigs; conditions: for ED50: Cavia porcellus, guinea pigs, oral, 1 hour before histamine 1.1 mg/kg into cephalic vein, survival after two hours, probit method; for protecting activity against histamine-induced lethality in comparison with that of the compounds of the present invention: relative to compounds of the present invention
Procedure: 1. Protecting activity against histamine-induced lethality
(3) Homochlorcyclizine hydrochloride (reference compound)
The test was carried out by a method similar to Labell & Tislow method (cf. J. Pharmacol Exp. Ther., 113, 72, 1955). […] After one hour, histamine (1.1 mg/kg, in a physiological saline solution) was injected to the animals in cephalic vein. After two hours, the number of live guinea pigs was counted, and therefrom ED50 of the compounds was calculated according to probit method.

[2] = test system: hexobarbital-induced sleep; assay: Potentiating effect on hexobarbital-induced sleep in mice; type: in vivo
Text: Besides, the conventional antihistaminics have side-effect such as hypnotic activity.

Compound	LD50 at 168 h (in vivo)	ED50 [1]	potentiating effect on hexobarbital-induced sleep ([2]; 50 mg/kg (p.o.))	protecting activity against histamine-induced lethality in comparison with that of the compounds of the present invention [1]	potentiating effect on hexobarbital-induced sleep ([2]; 25 mg/kg (p.o.))
C#CCOCCn1c(N2CCCN(C)CC2)nc2ccccc21 [Example 1, 1-[2-(propargyloxy)ethyl]-2-(4-methyl-1-homopiperazinyl)benzimidazole difumarate]	990 mg/kg	0.0046 mg/kg			
CCOCCn1c(N2CCN(C)CC2)nc2ccccc21 [Example 5, 1-[2-(ethoxy)ethyl]-2-(4-methyl-1-piperazinyl)benzimidazole.3/2 fumarate]	1490 mg/kg	0.007 mg/kg			
CCCOCCn1c(N2CCN(C)CC2)nc2ccccc21 [Example 11, 1-[2-(n-propoxy)ethyl]-2-(4-methyl-1-piperazinyl)benzimidazole.3/2 fumarate]	2300 mg/kg	0.015 mg/kg			
CN1CCCN(c2nc3ccccc3n2CCOc2ccccc2)CC1 [Example 10, 1-[2-(phenoxy)ethyl]-2-(4-methyl-1-homopiperazinyl)benzimidazole difumarate]	1010 mg/kg	0.014 mg/kg			
CCOCCn1c(N2CCNCC2)nc2ccccc21 [Example 8, 1-[2-(ethoxy)ethyl]-2-(1-piperazinyl)benzimidazole.3/2 fumarate]	2220 mg/kg	0.011 mg/kg	did not show such potentiating effect		
CN1CCN(c2nc3ccccc3n2CCOc2ccccc2)CC1 [Example 12, 1-[2-(phenoxy)ethyl]-2-(4-methyl-1-piperazinyl)benzimidazole.3/2 fumarate]	1110 mg/kg	0.017 mg/kg			
C=CCOCCn1c(N2CCCN(C)CC2)nc2ccccc21 [Example 6, 1-[2-(allyloxy)ethyl]-2-(4-methyl-1-homopiperazinyl)benzimidazole difumarate]	904 mg/kg	0.0088 mg/kg			
CN1CCN(c2nc3ccccc3n2Cc2ccccc2)CC1 [1-benzyl-2-(4-methyl-1-piperazinyl)benzimidazole, reference compound]				about one severals to one tenth or less	
C#CCOCCn1c(N2CCN(C)CC2)nc2ccccc21 [Example 2, 1-[2-(propargyloxy)ethyl]-2-(4-methyl-1-piperazinyl)benzimidazole.3/2fumarate]	818 mg/kg	0.0047 mg/kg	did not show such potentiating effect		
C=CCOCCn1c(N2CCN(C)CC2)nc2ccccc21 [Example 4, 1-[2-(allyloxy)ethyl]-2-(4-methyl-1-piperazinyl)benzimidazole.3/2 fumarate]	1640 mg/kg	0.0058 mg/kg			
CCOCCn1c(N2CCCN(C)CC2)nc2ccccc21 [Example 3, 1-[2-(ethoxy)ethyl]-2-(4-methyl-1-homopiperazinyl)benzimidazole.difumarate]	628 mg/kg	0.0047 mg/kg	did not show such potentiating effect		
CN1CCN(c2nc3ccccc3[nH]2)CC1 [2-(4-methyl-1-piperazinyl)benzimidazole, reference compound]				about one severals to one tenth or less	
CCCOCCn1c(N2CCCN(C)CC2)nc2ccccc21 [Example 7, 1-[2-(n-propoxy)ethyl]-2-(4-methyl-1-homopiperazinyl)benzimidazole difumarate]	884 mg/kg	0.0095 mg/kg			
CN1CCN(c2nc3ccccc3n2C)CC1 [1-methyl-2-(4-methyl-1-piperazinyl)benzimidazole, reference compound]				about one severals to one tenth or less	
CN1CCCN(C(c2ccccc2)c2ccc(Cl)cc2)CC1 (stereo not shown) [Homochlorcyclizine hydrochloride, reference compound]	382 mg/kg	0.26 mg/kg			remarkable potentiating effect
CCOCCn1c(N2CCN(CC)CC2)nc2ccccc21 [Example 9, 1-[2-(ethoxy)ethyl]-2-(4-ethyl-1-piperazinyl)benzimidazole.3/2 fumarate]	2640 mg/kg	0.013 mg/kg	did not show such potentiating effect		
